From patent US8653096B2, “Chemokine receptor antagonists and methods of use thereof” (Millennium Pharmaceuticals, Inc., priority 2001, dated 2014)
Like-named read-outs stand apart in the source and are kept apart here.

Target: T1, RANTES/MIP-1α chemokine receptor (CCR1) in THP-1 cell membranes (Homo sapiens, UniProt P32246)
T1 construct: Membranes were prepared from THP-1 cells (ATCC #TIB202); host or cells: THP-1 cells (membrane preparation)
T1 sequence (P32246 1-355): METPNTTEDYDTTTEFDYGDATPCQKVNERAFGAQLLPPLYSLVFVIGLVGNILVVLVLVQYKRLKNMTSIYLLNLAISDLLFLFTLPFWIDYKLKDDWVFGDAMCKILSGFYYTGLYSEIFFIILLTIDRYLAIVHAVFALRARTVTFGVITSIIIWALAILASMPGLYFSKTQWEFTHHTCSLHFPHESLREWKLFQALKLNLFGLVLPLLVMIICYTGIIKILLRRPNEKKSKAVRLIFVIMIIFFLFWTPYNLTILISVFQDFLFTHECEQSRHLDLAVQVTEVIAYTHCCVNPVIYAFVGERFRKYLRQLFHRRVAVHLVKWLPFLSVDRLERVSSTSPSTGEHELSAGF
Experiment: Receptor binding assay: 125I-RANTES or 125I-MIP-1α binding to THP-1 cell membranes

[1] = inhibitor concentration required for 50% inhibition of specific binding, 125I-RANTES or 125I-MIP-1α as ligand, THP-1 cell membranes, read-out: IC50

Q: For `CC1CN(CCC=C2c3cc(C(C)(C)O)ccc3OCc3ncccc32)CCN1c1ccc(Cl)cc1` (stereo not shown) [Example 519, 2-(5-{3-[4-(4-Chloro-phenyl)-3-methyl-piperazin-1-yl]-propylidene}-5,11-dihydro-10-oxa-1-aza-dibenzo[a,d]cyclohepten-7-yl)-propan-2-ol], which IC50 [1] is on record?
A: Its IC50 is under 1 µM.

Q: Which IC50 [1] does the source give for `CC(C)(O)c1ccc2c(c1)C(=CCCN1CCC3(CC1)OC(=O)Nc1ccc(Cl)cc13)c1cccnc1CO2` [Example 520] here?
A: Its IC50 is under 1 µM.

Q: For `CC(C)(O)c1ccc2c(c1)C(=CCCN1CCC(C)(c3ccccc3Cl)CC1)c1cccnc1CO2` [Example 521, 2-(5-{3-[4-(2-Chloro-phenyl)-4-methyl-piperidin-1-yl]-propylidene}-5,11-dihydro-10-oxa-1-aza-dibenzo[a,d]cyclohepten-7-yl)-propan-2-ol], which IC50 [1] is on record?
A: The IC50 was under 1 µM.

Q: How did the IC50 [1] turn out when `CC1CN(CCC=C2c3cc(OCC(C)(C)O)ccc3OCc3ncccc32)CCC1(O)c1ccc(Cl)cc1` (stereo not shown) [Example 522, 4-(4-Chloro-phenyl)-1-{3-[7-(2-hydroxy-2-methyl-propoxy)-11H-10-oxa-1-aza-dibenzo[a,d]cyclohepten-5-ylidene]-propyl}-3-methyl-piperidin-4-ol] was run?
A: Its IC50 is under 1 µM.

Q: With `CC(C)(O)c1ccc2c(c1)C(=CCCN1CCC(O)(c3ccc(Cl)cc3)C(C)(C)C1)c1ccc[n+]([O-])c1CO2` (stereo not shown) [Example 523, 4-(4-Chloro-phenyl)-1-{3-[7-(1-hydroxy-1-methyl-ethyl)-1-oxy-11H-10-oxa-1-aza-dibenzo[a,d]cyclohepten-5-ylidene]-propyl}-3,3-dimethyl-piperidin-4-ol] as the compound, how does the IC50 [1] read?
A: Its IC50 is under 1 µM.

Q: Which IC50 [1] does the source give for `CCN(Cc1ccc(Cl)cc1)[C@@H]1CCN(CCC=C2c3cc(C(C)(C)O)ccc3OCc3ncccc32)C1` [Example 524, (R)-2-[5-(3-{3-[(4-Chloro-benzyl)-ethyl-amino]-pyrrolidin-1-yl}-propylidene)-5,11-dihydro-10-oxa-1-aza-dibenzo[a,d]cyclohepten-7-yl]-propan-2-ol] here?
A: The IC50 was under 1 µM.

Q: For `CCN(c1ccc(Cl)cc1)[C@@H]1CCN(CCC=C2c3cc(C(C)(C)O)ccc3OCc3ncccc32)C1` [Example 525, (R)-2-[5-(3-{3-[(4-Chloro-phenyl)-ethyl-amino]-pyrrolidin-1-yl}-propylidene)-5,11-dihydro-10-oxa-1-aza-dibenzo[a,d]cyclohepten-7-yl]-propan-2-ol], which IC50 [1] is on record?
A: Its IC50 is under 20 µM.

Q: For `CCN(Cc1ccc(Cl)cc1)[C@@H]1CCN(CCC=C2c3cc(C(=O)O)ccc3OCc3ncccc32)C1` [Example 527, (R)-5-(3-{3-[(4-Chloro-benzyl)-ethyl-amino]-pyrrolidin-1-yl}-propylidene)-5,11-dihydro-10-oxa-1-aza-dibenzo[a,d]cycloheptene-7-carboxylic acid], which IC50 [1] is on record?
A: The IC50 was under 1 µM.

Q: `CCN(CCc1ccc(Cl)cc1)[C@@H]1CCN(CCC=C2c3cc(C(C)(C)O)ccc3OCc3ncccc32)C1` [Example 528] was tested. Which IC50 [1] did it give?
A: The IC50 was under 10 µM.

Q: For `CC(C)(O)c1ccc2c(c1)C(=CCCN1CC[C@H](OCc3ccc(Cl)cc3)C1)c1cccnc1CO2` [Example 529, (S)-2-(5-{3-[3-(4-Chloro-benzyloxy)-pyrrolidin-1-yl]-propylidene}-5,11-dihydro-10-oxa-1-aza-dibenzo[a,d]cyclohepten-7-yl)-propan-2-ol], which IC50 [1] is on record?
A: The IC50 was under 20 µM.

Q: How did the IC50 [1] turn out when `CC(C)(O)c1ccc2c(c1)C(=CCCN1CCC(C(=O)NCc3ccc(Cl)cc3)C1)c1cccnc1CO2` (stereo not shown) [Example 530] was run?
A: Its IC50 is under 20 µM.

Q: With `CCN(C(=O)C1CCN(CCC=C2c3cc(C(C)(C)O)ccc3OCc3ncccc32)C1)c1ccc(Cl)cc1` (stereo not shown) [Example 531, 1-{3-[7-(1-Hydroxy-1-methyl-ethyl)-11H-10-oxa-1-aza-dibenzo[a,d]cyclohepten-5-ylidene]-propyl}-pyrrolidine-3-carboxylic acid (4-chloro-phenyl)-ethyl-amide] as the compound, how does the IC50 [1] read?
A: The IC50 was under 1 µM.

Q: How did the IC50 [1] turn out when `CC(C)(O)c1ccc2c(c1)C(=CCCN1CC[C@@H](N3Cc4ccc(Cl)cc4C3)C1)c1cccnc1CO2` [Example 532] was run?
A: Its IC50 is under 2 µM.

Q: For `CC(C)(O)c1ccc2c(c1)C(=CCCN1CC[C@@H](N(Cc3ccc(Cl)cc3)C(N)=O)C1)c1cccnc1CO2` [Example 533, (R)-1-(4-Chloro-benzyl)-1-(1-{3-[7-(1-hydroxy-1-methyl-ethyl)-11H-10-oxa-1-aza-dibenzo[a,d]cyclohepten-5-ylidene]-propyl}-pyrrolidin-3-yl)urea], which IC50 [1] is on record?
A: Its IC50 is under 10 µM.

Q: `CC(C)(O)c1ccc2c(c1)C(=CCCN1CC[C@@H](N3CC(=O)Nc4cc(Cl)ccc4C3)C1)c1cccnc1CO2` [Example 534, (R)-8-Chloro-4-(1-{3-[7-(-hydroxy-1-methyl-ethyl)-11H-10-oxa-1-aza-dibenzo[a,d]cyclohepten-5-ylidene]-propyl}-pyrrolidine-3-yl)-1,3,4,5-tetrahydro-benzo[e][1,4]diazepin-2-one] was tested. Which IC50 [1] did it give?
A: Its IC50 is under 1 µM.

Q: For `CCN1C(=O)CN([C@@H]2CCN(CCC=C3c4cc(C(C)(C)O)ccc4OCc4ncccc43)C2)Cc2ccc(Cl)cc21` [Example 535, (R)-8-Chloro-1-ethyl-4-(1-{3[7-(-hydroxy-1-methyl-ethyl)-11H-10-oxa-1-aza-dibenzo[a,d]cyclohepten-5-ylidene]-propyl}-pyrrolidine-3-yl)-1,3,4,5-tetrahydro-benzo[e][1,4]diazepin-2-one], which IC50 [1] is on record?
A: The IC50 was under 10 µM.

Q: `COC(=O)CN(Cc1ccc(Cl)cc1)C1CCN(CCC=C2c3cc(C(C)(C)O)ccc3OCc3ncccc32)C1` (stereo not shown) [Example 536, [(4-Chloro-benzyl)-(1-{3-[7-(1-hydroxy-1-methyl-ethyl)-11H-10-oxa-1-aza-dibenzo[a,d]cyclohepten-5-ylidene]-propyl}-pyrrolidin-3-yl)-amino]-acetic acid methyl ester] was tested. Which IC50 [1] did it give?
A: The IC50 was under 1 µM.

Q: With `CC(C)(O)c1ccc2c(c1)C(=CCCN1CCC(N(CC(=O)O)Cc3ccc(Cl)cc3)C1)c1cccnc1CO2` (stereo not shown) [Example 537, [(4-Chloro-benzyl)-(1-{3-[7-(1-hydroxy-1-methyl-ethyl)-11H-10-oxa-1-aza-dibenzo[a,d]cyclohepten-5-ylidene]-propyl}-pyrrolidin-3-yl)-amino]-acetic acid] as the compound, how does the IC50 [1] read?
A: The IC50 was under 1 µM.

Q: How did the IC50 [1] turn out when `CC(C)(O)c1ccc2c(c1)C(=CCCN1CCN(c3ccc(Cl)c(Cl)c3)CC1)c1cccnc1CO2` [Example 538, 2-(5-{3-[4-(3,4-Dichloro-phenyl)-piperazin-1-yl]-propylidene}-5,11-dihydro-10-oxa-1-aza-dibenzo[a,d]cyclohepten-7-yl)-propan-2-ol] was run?
A: Its IC50 is under 10 µM.

Q: For `Cc1cc(Cl)ccc1N1CCN(CCC=C2c3cc(C(C)(C)O)ccc3OCc3ncccc32)CC1` [Example 539, 2-(5-{3-[4-(4-Chloro-2-methyl-phenyl)-piperazin-1-yl]-propylidene}-5,11-dihydro-10-oxa-1-aza-dibenzo[a,d]cyclohepten-7-yl)-propan-2-ol], which IC50 [1] is on record?
A: The IC50 was under 10 µM.

Q: For `CC(C)(O)c1ccc2c(c1)C(=CCCN1CCN(c3ccc(Cl)cc3C#N)CC1)c1cccnc1CO2` [Example 540, 5-Chloro-2-(4-{3-[7-(1-hydroxy-1-methyl-ethyl)-11H-10-oxa-1-aza-dibenzo[a,d]cyclohepten-5-ylidene]-propyl}-piperazin-1-yl)-benzonitrile], which IC50 [1] is on record?
A: The IC50 was under 10 µM.

Q: With `COC(=O)c1cc(Cl)ccc1N1CCN(CCC=C2c3cc(C(C)(C)O)ccc3OCc3ncccc32)CC1` [Example 541, 5-Chloro-2-(4-{3-[7-(1-hydroxy-1-methyl-ethyl)-11H-10-oxa-1-aza-dibenzo[a,d]cyclohepten-5-ylidene]-propyl}-piperazin-1-yl)-benzoic acid methyl ester] as the compound, how does the IC50 [1] read?
A: The IC50 was under 10 µM.

Q: With `CC(C)(O)c1ccc2c(c1)C(=CCCN1CCC(NC(=O)Cc3ccc(Cl)cc3)CC1)c1cccnc1CO2` [Example 542, 2-(4-Chloro-phenyl)-N-(1-{3-[7-(1-hydroxy-1-methyl-ethyl)-11H-10-oxa-1-azadibenzo[a,d]cyclohepten-5-ylidene]-propyl}-piperidin-4-yl)-acetamide] as the compound, how does the IC50 [1] read?
A: The IC50 was under 10 µM.

Q: How did the IC50 [1] turn out when `CCN(CCC=C1c2cc(C(C)(C)O)ccc2OCc2ncccc21)CCN(CC)c1ccc(Cl)cc1` [Example 543, 2-{5-[3-({2-[(4-Chloro-phenyl)-ethyl-amino]-ethyl}-ethyl-amino)-propylidene]-5,11-dihydro-10-oxa-1-aza-dibenzo[a,d]cyclohepten-7-yl}-propan-2-ol] was run?
A: The IC50 was under 10 µM.

Q: How did the IC50 [1] turn out when `CC(C)(O)c1ccc2c(c1)C(=CCCN1CCN(c3ccc(Cl)cc3)C(C(N)=O)C1)c1cccnc1CO2` (stereo not shown) [Example 544, 1-(4-Chloro-phenyl)-4-{3-[7-(1-hydroxy-1-methyl-ethyl)-11H-10-oxa-1-aza-dibenzo[a,d]cyclohepten-5-ylidene]-propyl}-piperazine-2-carboxylic acid amide] was run?
A: The IC50 was under 10 µM.

Q: How did the IC50 [1] turn out when `CC(C)(O)c1ccc2c(c1)C(=CCCN1CCN(c3ccc(Cl)cc3)C(C#N)C1)c1cccnc1CO2` (stereo not shown) [Example 545, 1-(4-Chloro-phenyl)-4-{3-[7-(1-hydroxy-1-methyl-ethyl)-11H-10-oxa-1-aza-dibenzo[a,d]cyclohepten-5-ylidene]-propyl}-piperazine-2-carbonitrile] was run?
A: Its IC50 is under 10 µM.

Q: `COC(=O)C1CN(CCC=C2c3cc(C(C)(C)O)ccc3OCc3ncccc32)CCN1c1ccc(Cl)cc1` (stereo not shown) [Example 546, 1-(4-Chloro-phenyl)-4-{3-[7-(1-hydroxy-1-methyl-ethyl)-11H-10-oxa-1-aza-dibenzo[a,d]cyclohepten-5-ylidene]-propyl}-piperazine-2-carboxylic acid methyl ester] was tested. Which IC50 [1] did it give?
A: The IC50 was under 1 µM.

Q: `CC(C)NC(=O)Oc1ccc2c(c1)C(=CCCN1CCC(O)(c3ccc(Cl)cc3)C(C)(C)C1)c1cccnc1CO2` (stereo not shown) [Example 547, Isopropyl-carbamic acid 5-{3-[4-(4-chloro-phenyl)-4-hydroxy-3,3-dimethyl-piperidin-1-yl]-propylidene}-5,11-dihydro-10-oxa-1-aza-dibenzo[a,d]cyclohepten-7-yl ester] was tested. Which IC50 did it give?
A: Its IC50 is under 1 µM.
